Assay results from patent publication US20180201594A1, “Compound pac-1 or salt thereof and pharmaceutical composition comprising same” (priority 2015, published 2018).
Marks after values point to notes of the source that are not given here.

How the values were obtained:
HUVECs = assay: HUVEC viability (MTT method); type: cell-based; details: Homo sapiens, 48 h
Method: Test Methods: The effect of ZYS-1 on the viability of HUVECs was determined by MTT method. The HUVECs in logarithmic growth phase were taken and digested with 0.25% trypsin, centrifuged and resuspended in ECM complete medium to formulate into […] single cell suspension. The cells were seeded in 96-well culture plates at a density of 1×10^4 cells/well, with a volume of 100 μL per well. They were placed and cultured in the incubator with 37®, 5% CO2. After culturing 24 h, […] different concentrations of ZYS-1 solution were added to obtain the final concentrations of drugs at 0.1, 0.5, 1, 5, 10, 50 and 100 μM. Meanwhile, the positive control group was set as etoposide at a final concentration of 10 μM, and the negative control was an equal amount of 0.1% DMSO solution. Each concentration of the experimental groups and the control groups all were set five replicates, with 100 μL of drugs per well. The blank control group is additionally set as 200 μL complete medium. The cells were placed and cultured in the incubator with 37 m, 5% CO2. After culturing for 48 h, 20 μL MTT solution (5 mg/mL) was added to each well, which was continued to be cultured for another 4 h. […] The light absorbance value of each well was measured by enzyme-linked immunosorbent assay. The measured wavelength was 570 nm and the result was recorded. […]

[1] = test system: Murine Lewis lung carcinoma cell line; assay: Spontaneous metastatic cancer in mice (Lewis lung carcinoma); details: for Inhibition rate of metastasis loci / Metastasis rate / Number of lung (metastasis loci) / Tumor weight / tumor inhibition rate: intragastric administration
Method: The tumors growed to 1000 mm^3 and then were randomly divided into groups for adminstration, the groups were treated after three weeks. A total of 4 groups including ZYS-1 high, medium and low (100, 50, 25 mg/kg/d, intragastric administration) and positive control (gefitinib 100 mg/kg/d, intragastric administration) groups were set. The efficacy of ZYS-1 was evaluated in terms of general survival status (food intake, activity, hair etc.), tumor inhibition rate and metastasis inhibition rate.
The curve of tumor growth was plotted. On the next day after completing the treatment cycle, the animal was weighed. After collecting the blood, the animal was sacrificed. The tumor tissue was stripped, weighed, and the tumor inhibition rate was calculated. Store at −80 ? .
Metastasis rate=Number of mice with metastasis/Total number of mice×100%
Inhibition rate of metastasis loci=(average number of metastasis loci in the control group−average number of metastasis loci in the experimental group)/average number of metastasis loci in the control group×100%

HT-1080 cells = assay: HT-1080 cell invasion (Transwell, matrigel); type: cell-based, human
Method: The matrigel was thawed at 4° C. overnight and diluted with serum-free medium precooled at 4° ? t 1:2. 30 μL of the diluted matrigel was added vertically in the center of the bottom of the upper chamber, allowed to stand at r.m. for 20 min, and then incubated at 37° C. for 60 min. It was observed under the microscope until gelling, hydrated with the serum-free medium for use. The treated tumor cells with drugs for 48 h were digested and collected, and then the cells were suspended with serum free medium. The cell intensity was adjusted into 2.5×10^5 cells/mL, and kept cultured in the incubator for another 24 h. The upper chamber was taken, with methanol fixation for 30 min, dyed with Giemsa stain for 30 min, rinsed with clean water twice. The cells on the bottom membrane surface of the upper chamber were carefully wiped off with a wet cotton swab, dried in the air. With the bottom up, they were transferred onto glass slide and sealed with neutral gum. Under the microscope, nine random fields were taken and the transmembrane cells therein were counted. The average values were statistically calculated.

HGC-27 cells = assay: Two-dimensional migration (cell scratch assay); type: cell-based; details: n = 3
Method: HGC-27 cells in logarithmic growth phase were collected. The cell with density of 5×10^5 cells/mL was spread onto 24-well plates (0.5 mL per well). RMPI-1640 culture medium with 10% fetal bovine serum was added and cultured for 24 h to form monolayer cells. The monolayer cells were scratched in a line by 20 μL pipette gun tip, which was washed with PBS three times. Then, drug-containing media with 2% fetal bovine serum s were added, which concentrations were 2 μM, 4 μM, respectively. The media were cultured in the incubator with 37 ? , 5% CO2 saturated humidity. Sampled at 0, 4, 8, 12 h and took the pictures. The area where cells were migrated from scratch edge to scratch within the same field was counted by software.

## C=CCc1cccc(/C=N/NC(=O)CN2CCN(Cc3ccccc3)CC2)c1O [ZYS-1, 1-Piperazineacetic acid, 4-(phenylmethyl)-2-[[2-hydroxy-3-(2-propen-1-yl)phenyl]methylene]]
HUVECs
  IC50: 2540 nM
[1]; 25 mg/kg/d
  Inhibition rate of metastasis loci: 54.68%
  Metastasis rate: 100%
  Number of lung (metastasis loci): 6.3 ± 3.3
  Tumor weight: 1.9579 ± 0.8346 g
  tumor inhibition rate: 50.63%
[1]; 50 mg/kg/d
  Inhibition rate of metastasis loci: 61.15%
  Metastasis rate: 100%
  Number of lung (metastasis loci): 5.4 ± 2.6
  Tumor weight: 1.5844 ± 0.8288 g
  tumor inhibition rate: 60.05%
[1]; 100 mg/kg/d
  Metastasis rate: 100%
  Number of lung (metastasis loci): 3.8 ± 1.9
  Tumor weight: 1.0209 ± 0.7332 g
  tumor inhibition rate: 74.26%
[1]; high and medium dose (100, 50 mg/kg/d), tumor-bearing mice
  Hair Condition: shiny coat
HT-1080 cells; 2 μM and 4 μM administration groups
  numbers of invasive cells: smaller than those from the control group
HT-1080 cells; 8 μM administration group
  numbers of invasive cells: No cell from 8 μM administration group invaded into the lower chamber
HGC-27 cells; 2 μM, 4 h
  area of cell migration into scratch: 0.12 ± 0.01 mm^2
HGC-27 cells; 2 μM, 8 h
  area of cell migration into scratch: 0.16 ± 0.02 mm^2
HGC-27 cells; 2 μM, 12 h
  area of cell migration into scratch: 0.20 ± 0.02 mm^2
HGC-27 cells; 4 μM, 4 h
  area of cell migration into scratch: 0.04 ± 0.01* mm^2
HGC-27 cells; 4 μM, 8 h
  area of cell migration into scratch: 0.07 ± 0.01* mm^2
HGC-27 cells; 4 μM, 12 h
  area of cell migration into scratch: 0.08 ± 0.02** mm^2
